Experimental data as given in ChEMBL document CHEMBL4257227, “Deubiquitinase inhibitors and methods for use of the same” (2016).
Calls of active or inactive are those of the source. No cut-off for these calls is given here.

Columns and labels:
[1] = test system: CD34-positive blood stem/progenitor cell; test: Induction of apoptosis in human CD34+ cells at 0.3125 to 5 uM incubated for 24 hrs by annexin V staining based flow cytometry; settings: cd34-positive (myeloid/lymphoid) cell
[2] = test system: Mus musculus; test: Toxicity in human MM1S cells xenografted NOD/SCID/gamma-2 knockout mouse assessed effect on body weight at 15 to 20 mg/kg, ip once per day for 14 days; assay type: functional, organism-based
[3] = test system: A375/R; test: Induction of apoptosis in human A375R cells assessed as induction of caspase-8 activation; assay type: functional, cell-based
[4] = test system: Mus musculus; test: Toxicity in human A375 cells xenografted NOD/SCID/gamma-2 knockout mouse assessed as effect on mobility at 7.5 to 15 mg/kg, ip once per day for 8 days; assay type: functional, organism-based
[5] = molecular target: Ubiquitin carboxyl-terminal hydrolase 9X (Homo sapiens) (UniProt Q93008); test: Inhibition of Usp9x in human A375 cells; assay type: cell-based
[6] = test system: Mus musculus; test: Toxicity in human A375 cells xenografted NOD/SCID/gamma-2 knockout mouse assessed effect on body weight at 7.5 mg/kg, ip once per day for 8 days; assay type: functional, organism-based
[7] = test system: Mus musculus; test: Toxicity in human A375 cells xenografted NOD/SCID/gamma-2 knockout mouse assessed as effect on behaviour at 7.5 to 15 mg/kg, ip once per day for 8 days; assay type: functional, organism-based
[8] = molecular target: T1, Ubiquitin carboxyl-terminal hydrolase 5 (Homo sapiens) (UniProt P45974); test: Inhibition of USP5 in Vemurafenib […] human A375R cells assessed as reduction in STAT3 phosphorylation
T1 sequence (whole entry): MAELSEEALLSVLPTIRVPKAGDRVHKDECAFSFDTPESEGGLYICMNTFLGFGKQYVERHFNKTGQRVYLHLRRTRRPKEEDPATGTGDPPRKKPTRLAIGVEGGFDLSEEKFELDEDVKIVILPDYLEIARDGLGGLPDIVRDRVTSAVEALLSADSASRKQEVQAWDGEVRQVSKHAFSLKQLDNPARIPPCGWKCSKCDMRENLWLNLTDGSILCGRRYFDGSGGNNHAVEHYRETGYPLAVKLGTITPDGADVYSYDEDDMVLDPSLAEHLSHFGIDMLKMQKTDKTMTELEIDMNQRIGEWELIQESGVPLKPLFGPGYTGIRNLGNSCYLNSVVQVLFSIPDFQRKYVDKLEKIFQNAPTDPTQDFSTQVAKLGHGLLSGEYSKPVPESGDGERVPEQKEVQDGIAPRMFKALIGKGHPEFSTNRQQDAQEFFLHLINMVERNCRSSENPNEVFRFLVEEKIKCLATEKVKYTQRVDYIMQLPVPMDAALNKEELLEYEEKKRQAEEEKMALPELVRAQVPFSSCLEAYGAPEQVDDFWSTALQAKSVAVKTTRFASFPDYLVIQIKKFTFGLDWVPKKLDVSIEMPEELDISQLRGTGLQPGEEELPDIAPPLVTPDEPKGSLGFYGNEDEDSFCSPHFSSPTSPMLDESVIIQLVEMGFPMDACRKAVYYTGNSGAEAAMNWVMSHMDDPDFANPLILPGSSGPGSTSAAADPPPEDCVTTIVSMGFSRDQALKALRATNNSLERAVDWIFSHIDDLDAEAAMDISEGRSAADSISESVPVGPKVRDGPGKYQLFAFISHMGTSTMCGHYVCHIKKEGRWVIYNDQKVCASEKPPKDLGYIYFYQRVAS

[9] = molecular target: T1, Ubiquitin carboxyl-terminal hydrolase 5 (Homo sapiens); test: Inhibition of USP5 in Vemurafenib sensitive human A375 cells assessed as reduction in ERK phosphorylation
[10] = molecular target: Ubiquitin carboxyl-terminal hydrolase 9X (Homo sapiens) (UniProt Q93008); test: Inhibition of Usp9x in human MM1.S cells assessed as reduction in MCL-1 protein levels at 5 uM incubated for 5 to 240 mins by SDS-PAGE and immunoblotting; assay type: cell-based
[11] = test system: MM1.S; test: Antitumor activity against human MM1S cells xenografted in NOD/SCID/gamma-2 knockout mouse assessed as inhibition of tumor growth at 5 to 20 mg/kg, ip once per day for 14 days; assay type: functional, organism-based
[12] = molecular target: Ubiquitin carboxyl-terminal hydrolase 9X (Homo sapiens) (UniProt Q93008); test: Inhibition of USP9x in Vemurafenib resistant human A375 cells assessed as STAT3 phosphorylation
[13] = test system: A375/R; test: Induction of apoptosis in human A375R cells assessed as induction of PARP cleavage; assay type: functional, cell-based
[14] = Plasma concentration in Balb/c mouse at 10 mg/kg, iv after 4 hrs by LC-MS analysis; assay type: ADME, organism-based
[15] = test system: MM1.S; test: Antitumor activity against human MM1S cells xenografted in NOD/SCID/gamma-2 knockout mouse assessed as inhibition of tumor volume at 5 to 20 mg/kg, ip once per day for 11 days; assay type: functional, organism-based
[16] = Plasma concentration in Balb/c mouse at 30 mg/kg, po after 2 hrs by LC-MS analysis; assay type: ADME, organism-based
[17] = test system: Mus musculus; test: Inhibition of Usp9x in human MM1S cells xenografted in NOD/SCID/gamma-2 knockout mouse assessed as reduction in Mcl-1 protein levels at 15 mg/kg, ip once per day for 14 days; assay type: functional, organism-based
[18] = Plasma concentration in Balb/c mouse at 10 mg/kg, iv after 7 hrs by LC-MS analysis; assay type: ADME, organism-based
[19] = molecular target: Ubiquitin carboxyl-terminal hydrolase 9X (Homo sapiens) (UniProt Q93008); test: Inhibition of USP9x in Vemurafenib sensitive human A375 cells
[20] = test system: A-375; test: Antitumor activity against human A375 cells xenografted in NOD/SCID/gamma-2 knockout mouse assessed as inhibition of tumor growth at 7.5 mg/kg, ip once per day for 8 days; assay type: functional, organism-based
[21] = AUClast in Balb/c mouse at 30 mg/kg, po by LC-MS analysis; assay type: ADME, organism-based; parameters: dose 30 mg/kg, route oral, time 0 - last; settings: in vivo
[22] = Plasma concentration in Balb/c mouse at 30 mg/kg, po after 4 hrs by LC-MS analysis; assay type: ADME, organism-based
[23] = test system: A-375; test: Antitumor activity against human A375 cells xenografted in NOD/SCID/gamma-2 knockout mouse assessed as inhibition of tumor growth at 15 mg/kg, ip once per day for 8 days; assay type: functional, organism-based
[24] = test system: A-375; test: Induction of p53 protein expression in Vemurafenib resistant human A375 cells; assay type: functional, cell-based
[25] = AUClast in Balb/c mouse at 10 mg/kg, iv by LC-MS analysis; assay type: ADME, organism-based; parameters: dose 10 mg/kg, route intravenous, time 0 - last; settings: in vivo
[26] = test system: Murine norovirus; test: Antiviral activity against Murine norovirus infected in mouse RAW264.7 cells assessed as reduction in viral plaque forming units; assay type: functional, organism-based
[27] = test system: Mus musculus; test: Toxicity in human MM1S cells xenografted NOD/SCID/gamma-2 knockout mouse assessed effect on body weight at 2.5 to 10 mg/kg, ip once per day for 14 days; assay type: functional, organism-based
[28] = test system: A375/R; test: Induction of apoptosis in human A375R cells assessed as induction of caspase-3 activation; assay type: functional, cell-based
[29] = Plasma concentration in Balb/c mouse at 30 mg/kg, po after 0.5 hrs by LC-MS analysis; assay type: ADME, organism-based
[30] = test system: MM1.S; test: Antitumor activity against human MM1S cells xenografted in NOD/SCID/gamma-2 knockout mouse assessed as inhibition of tumor growth at 2.5 to 10 mg/kg, ip once per day for 14 days; assay type: functional, organism-based
[31] = test system: MM1.S; test: Induction of apoptosis in human MM1S cells at 0.3125 to 5 uM incubated for 24 hrs by annexin V staining based flow cytometry; assay type: functional, cell-based
[32] = Plasma concentration in Balb/c mouse at 10 mg/kg, iv after 0.5 hrs by LC-MS analysis; assay type: ADME, organism-based

Chain of Ubiquitin carboxyl-terminal hydrolase 9X (Homo sapiens) (Q93008 whole entry): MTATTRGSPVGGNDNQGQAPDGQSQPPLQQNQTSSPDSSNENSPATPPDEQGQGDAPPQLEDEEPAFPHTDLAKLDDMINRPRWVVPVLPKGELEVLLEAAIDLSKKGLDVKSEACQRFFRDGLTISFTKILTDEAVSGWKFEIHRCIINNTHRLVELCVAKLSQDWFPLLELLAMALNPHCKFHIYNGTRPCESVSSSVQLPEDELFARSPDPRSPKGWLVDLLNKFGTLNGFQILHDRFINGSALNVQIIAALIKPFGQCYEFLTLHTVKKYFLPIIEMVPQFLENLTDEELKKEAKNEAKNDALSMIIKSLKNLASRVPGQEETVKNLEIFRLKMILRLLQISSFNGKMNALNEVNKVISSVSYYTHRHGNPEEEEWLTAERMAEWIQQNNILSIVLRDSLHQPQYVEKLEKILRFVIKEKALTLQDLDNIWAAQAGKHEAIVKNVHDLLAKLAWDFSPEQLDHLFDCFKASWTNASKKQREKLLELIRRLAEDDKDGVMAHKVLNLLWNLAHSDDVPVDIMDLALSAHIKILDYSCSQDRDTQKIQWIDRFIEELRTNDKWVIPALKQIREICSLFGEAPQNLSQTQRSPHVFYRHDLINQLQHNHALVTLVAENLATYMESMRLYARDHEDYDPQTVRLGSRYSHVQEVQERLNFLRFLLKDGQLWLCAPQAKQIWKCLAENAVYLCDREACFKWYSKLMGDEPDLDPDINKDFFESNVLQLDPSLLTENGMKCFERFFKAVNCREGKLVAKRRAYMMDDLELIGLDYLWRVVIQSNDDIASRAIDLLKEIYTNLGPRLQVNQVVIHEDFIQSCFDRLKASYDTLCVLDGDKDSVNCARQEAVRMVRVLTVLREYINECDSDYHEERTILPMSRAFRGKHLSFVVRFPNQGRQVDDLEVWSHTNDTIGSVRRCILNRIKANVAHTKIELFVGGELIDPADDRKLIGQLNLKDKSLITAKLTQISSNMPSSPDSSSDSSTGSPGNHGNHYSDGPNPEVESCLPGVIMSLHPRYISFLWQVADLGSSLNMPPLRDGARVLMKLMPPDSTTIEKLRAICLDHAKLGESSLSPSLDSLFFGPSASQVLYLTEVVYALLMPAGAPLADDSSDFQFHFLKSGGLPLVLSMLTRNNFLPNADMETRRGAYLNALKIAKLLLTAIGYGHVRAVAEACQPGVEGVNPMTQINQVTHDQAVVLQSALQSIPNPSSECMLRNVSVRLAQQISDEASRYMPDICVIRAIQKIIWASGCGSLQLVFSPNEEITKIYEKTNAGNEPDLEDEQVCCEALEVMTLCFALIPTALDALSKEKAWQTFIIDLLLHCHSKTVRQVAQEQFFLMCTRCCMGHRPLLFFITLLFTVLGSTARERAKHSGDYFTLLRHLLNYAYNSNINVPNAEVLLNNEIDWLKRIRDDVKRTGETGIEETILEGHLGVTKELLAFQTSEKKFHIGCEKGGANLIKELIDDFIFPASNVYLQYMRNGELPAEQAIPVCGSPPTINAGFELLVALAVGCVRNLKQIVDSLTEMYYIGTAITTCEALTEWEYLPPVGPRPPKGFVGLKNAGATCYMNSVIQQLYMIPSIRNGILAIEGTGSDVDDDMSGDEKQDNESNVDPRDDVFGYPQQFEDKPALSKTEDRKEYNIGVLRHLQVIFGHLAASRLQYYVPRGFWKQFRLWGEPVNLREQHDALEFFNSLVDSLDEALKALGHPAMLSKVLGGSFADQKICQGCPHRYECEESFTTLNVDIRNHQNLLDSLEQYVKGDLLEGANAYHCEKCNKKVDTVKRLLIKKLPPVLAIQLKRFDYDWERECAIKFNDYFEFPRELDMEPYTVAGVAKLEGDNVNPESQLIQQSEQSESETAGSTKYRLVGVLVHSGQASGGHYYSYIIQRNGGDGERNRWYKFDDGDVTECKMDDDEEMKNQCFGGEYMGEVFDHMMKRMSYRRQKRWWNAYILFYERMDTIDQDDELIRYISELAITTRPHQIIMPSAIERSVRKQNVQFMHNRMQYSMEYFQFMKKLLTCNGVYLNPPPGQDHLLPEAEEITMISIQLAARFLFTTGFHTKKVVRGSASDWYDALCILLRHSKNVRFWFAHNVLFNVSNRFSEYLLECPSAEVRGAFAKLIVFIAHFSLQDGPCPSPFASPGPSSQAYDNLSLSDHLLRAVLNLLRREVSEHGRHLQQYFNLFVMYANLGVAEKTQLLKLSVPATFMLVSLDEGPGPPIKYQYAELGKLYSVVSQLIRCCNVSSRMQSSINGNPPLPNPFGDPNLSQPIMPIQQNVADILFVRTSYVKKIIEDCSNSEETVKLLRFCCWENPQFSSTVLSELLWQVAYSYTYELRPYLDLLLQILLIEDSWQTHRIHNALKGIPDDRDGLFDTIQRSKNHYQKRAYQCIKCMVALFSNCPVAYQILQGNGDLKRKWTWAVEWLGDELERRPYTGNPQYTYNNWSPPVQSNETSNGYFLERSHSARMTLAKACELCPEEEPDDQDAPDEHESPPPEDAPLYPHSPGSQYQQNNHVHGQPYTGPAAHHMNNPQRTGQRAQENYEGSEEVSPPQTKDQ

Q: What does the source list for `CCCC(NC(=O)/C(C#N)=C/c1nc(Cl)ccc1Cl)c1ccc(OCCN2CCOCC2)cc1` (configuration not stated)?
A: Activity [1]: Non-Toxic; Activity [2]: Toxic; Activity [3]: Active; Activity [4]: Not toxic; inhibition [5]: Active; Activity [6]: Not toxic; Activity [7]: Not toxic; inhibition [8]: Active; inhibition [9]: Active; inhibition [10]: Active; TGI [11]: Active; inhibition [12]: Active; Activity [13]: Active; concentration at 4 h [14]: 126 to 289 ng/mL; Activity [15]: Active; concentration at 2 h [16]: 35.8 to 59 ng/mL; inhibition [17]: Active; concentration at 7 h [18]: 38.6 to 208 ng/mL; inhibition [19]: Active; TGI [20]: Active; AUC(0-t) [21]: 291 to 349 ng·h/mL; concentration at 4 h [22]: 44.5 to 57.1 ng/mL; TGI [23]: Active; Activity [24]: inactive; AUC(0-t) [25]: 3570 to 3730 ng·h/mL; Activity [26]: Active; Activity [27]: Not toxic; Activity [28]: Active; concentration at 0.5 h [29]: 60.8 to 78.7 ng/mL; TGI [30]: Active; Activity [31]: Active; concentration at 0.5 h [32]: 1220 to 1880 ng/mL
